{"source": "patent US20240067651A1", "about": "(Biohaven Therapeutics Ltd., priority 2019, published 2024)", "key": {"Plasma Stability": {"assay": "Plasma Stability", "assay_type": "in vitro ADME, human", "in_short": "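Parent compound quantified by LC-MS/MS after acetonitrile precipitation, reported as percent of control remaining (triplicate). Incubation: 1 hour, 37° C, fresh human plasma, compound at 1 μM.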"}, "[1]": {"assay": "Caco-2 Permeability Assay", "assay_type": "in vitro ADME, human", "settings": "human", "in_short": "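Bidirectional transport at 37 °C for 90 min, 10 μM donor concentration, with or without Pgp inhibitor, across 21-day Caco-2 monolayers with TEER >600 […] in HEPES-buffered HBSS, pH 7.4. LC-MS/MS of donor and receiver samples gives Papp, B→A/A→B efflux ratio and mass recovery.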"}, "[2]": {"assay": "Stability in Simulated Intestinal Fluid (SIF)", "assay_type": "in vitro ADME", "parameters": "key: % parent compound remaining relative to 0-minute sample", "in_short": "(§1)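 Percent of parent remaining relative to time zero was measured by LC-MS/MS over 0–60 min at 37 °C, 150 rpm. Test compound was 2 μg/mL final in pepsin-containing SGF, pH 1.2, or pancreatin-containing SIF, pH 6.8. Degradation half-life was derived from the log-linear decay where enough points allowed.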"}, "[3]": {"assay": "Stability in Simulated Gastric Fluid (SGF)", "assay_type": "in vitro ADME", "parameters": "key: % parent compound remaining relative to 0-minute sample", "in_short": "as §1"}, "[4]": {"settings": "% remaining at 1 h in human plasma"}, "[5]": {"settings": "Caco-2, pH 7.4, Caco-2 monolayer"}, "[6]": {"settings": "% remaining at 1 h in simulated intestinal fluid"}, "[7]": {"settings": "% remaining at 1 h in simulated gastric fluid"}, "[8]": {"settings": "% remaining at 1 h, human plasma, 1 μM, 37° C."}, "[9]": {"settings": "Caco-2, pH 7.4, donor 10 μM, 90 minutes, 37° C., direction not given"}, "[10]": {"settings": "% remaining at 1 h, SIF with pancreatin pH 6.8, 2 μg/mL, 37° C."}, "[11]": {"settings": "% remaining at 1 h, SGF with pepsin pH 1.2, 2 μg/mL, 37° C."}, "[12]": {"settings": "simulated intestinal fluid, at 1 h"}, "[13]": {"settings": "simulated gastric fluid, at 1 h"}}}
{"smiles": "CC(C)OCCn1c(=S)[nH]c(=O)c2c1ccn2COC(=O)CCNC(=O)[C@H](CO)NC(=O)OC(C)(C)C.O=C(O)C(F)(F)F", "note": "[Example 42]", "values": [{"measurement": "human Plasma stability", "setting": "Plasma Stability; [4]", "result": 51, "unit": "% remaining"}, {"measurement": "Papp at 90 min, 10 µM", "setting": "[1]; [5]", "result": 0.507, "unit": "×10⁻⁶ cm/s"}, {"measurement": "SIF", "setting": "[2]; [6]", "result": 75, "unit": "% remaining"}, {"measurement": "SGF", "setting": "[3]; [7]", "result": 86, "unit": "% remaining"}]}
{"smiles": "CC(C)OCCn1c(SCOC(=O)OCCOCCNC(=O)OC(C)(C)C)nc(=O)c2c1ccn2COC(=O)OCCOCCNC(=O)OC(C)(C)C", "note": "[Example 121]", "values": [{"measurement": "human Plasma stability", "setting": "Plasma Stability; [4]", "result": 34, "unit": "% remaining"}, {"measurement": "Papp at 90 min, 10 µM", "setting": "[1]; [5]", "result": 1.19, "unit": "×10⁻⁶ cm/s"}, {"measurement": "SIF", "setting": "[2]; [6]", "result": 56, "unit": "% remaining"}, {"measurement": "SGF", "setting": "[3]; [7]", "result": 69, "unit": "% remaining"}]}
{"smiles": "CC(C)OCCn1c(SCOC(=O)N(C)c2ccc(F)cc2)nc(=O)c2[nH]ccc21", "note": "[Example 211, ({4-oxo-1-[2-(propan-2-yloxy)ethyl]-1H,4H,5H-pyrrolo[3,2-d]pyrimidin-2-yl}sulfanyl)methyl N-(4-fluorophenyl)-N-methylcarbamate]", "values": [{"measurement": "human Plasma stability", "setting": "Plasma Stability; [8]", "result": 99, "unit": "% remaining"}, {"measurement": "Papp at 90 min, 10 µM", "setting": "[1]; [9]", "result": 20, "unit": "×10⁻⁶ cm/s"}, {"measurement": "SIF", "setting": "[2]; [10]", "result": 96, "unit": "% remaining"}, {"measurement": "SGF", "setting": "[3]; [11]", "result": 100, "unit": "% remaining"}]}
{"smiles": "CC(C)OCCn1c(=S)[nH]c(=O)c2c1ccn2COC(=O)[C@@H](N)C(C)C.O=C(O)C(F)(F)F", "note": "[Example 296, trifluoroacetic acid {4-oxo-1-[2-(propan-2-yloxy)ethyl]-2-sulfanylidene-1H,2H,3H,4H,5H-pyrrolo[3,2-d]pyrimidin-5-yl}methyl (2S)-2-amino-3-methylbutanoate]", "values": [{"measurement": "human Plasma stability", "setting": "Plasma Stability; % remaining @ 1 h", "result": 12, "unit": "% @ 1 h"}, {"measurement": "Papp at 90 min, 10 µM", "setting": "[1]; Caco-2, pH 7.4", "result": 1.18, "unit": "×10⁻⁶ cm/s"}, {"measurement": "SIF", "setting": "[2]; % remaining @ 1 h", "result": 43, "unit": "% @ 1 h"}, {"measurement": "SGF", "setting": "[3]; % remaining @ 1 h", "result": 97, "unit": "% @ 1 h"}]}
{"smiles": "CC(C)OCCn1c(=S)[nH]c(=O)c2c1ccn2COC(=O)Oc1ccc(F)cc1", "note": "[Example 235]", "values": [{"measurement": "human Plasma stability", "setting": "Plasma Stability; human plasma, at 1 h", "result": 2, "unit": "% remaining"}, {"measurement": "Papp at 90 min, 10 µM", "setting": "[1]; [5]", "result": "< 0.369", "unit": "×10⁻⁶ cm/s"}, {"measurement": "SIF", "setting": "[2]; [12]", "result": 1, "unit": "% remaining at"}, {"measurement": "SGF", "setting": "[3]; [13]", "result": 60, "unit": "% remaining"}]}
{"smiles": "CC(C)OCCn1c(=S)n(COC(=O)c2ccccc2)c(=O)c2c1ccn2COC(=O)c1ccccc1", "note": "[Example 117, {3-[(benzoyloxy)methyl]-4-oxo-1-[2-(propan-2-yloxy)ethyl]-2-sulfanylidene-1H,2H,3H,4H,5H-pyrrolo[3,2-d]pyrimidin-5-yl}methylbenzoate]", "values": [{"measurement": "human Plasma stability", "setting": "Plasma Stability; [8]", "result": 20, "unit": "%"}, {"measurement": "Papp at 90 min, 10 µM", "setting": "[1]; [9]", "result": 5.76, "unit": "×10⁻⁶ cm/s"}, {"measurement": "SIF", "setting": "[2]; [10]", "result": 79, "unit": "%"}, {"measurement": "SGF", "setting": "[3]; [11]", "result": 100, "unit": "%"}]}
{"smiles": "CCOC(=O)n1ccc2c1c(=O)[nH]c(=S)n2CCOC(C)C", "note": "[Example 230]", "values": [{"measurement": "human Plasma stability", "setting": "Plasma Stability; human plasma, at 1 h", "result": 2, "unit": "% remaining"}, {"measurement": "Papp at 90 min, 10 µM", "setting": "[1]; [5]", "result": 0.456, "unit": "×10⁻⁶ cm/s"}, {"measurement": "SIF", "setting": "[2]; [12]", "result": 33, "unit": "% remaining"}, {"measurement": "SGF", "setting": "[3]; [13]", "result": 99, "unit": "% remaining"}]}
{"smiles": "CSCC[C@H](NC(=O)OC(C)(C)C)C(=O)NCCC(=O)OCn1ccc2c1c(=O)[nH]c(=S)n2CCOC(C)C", "note": "[Example 29]", "values": [{"measurement": "human Plasma stability", "setting": "Plasma Stability; [4]", "result": 98, "unit": "% remaining"}, {"measurement": "Papp at 90 min, 10 µM", "setting": "[1]; [5]", "result": 5.41, "unit": "×10⁻⁶ cm/s"}, {"measurement": "SIF", "setting": "[2]; [6]", "result": 62, "unit": "% remaining"}, {"measurement": "SGF", "setting": "[3]; [7]", "result": 92, "unit": "% remaining"}]}
{"smiles": "CC(C)C[C@H](NC(=O)OC(C)(C)C)C(=O)NCCC(=O)OCn1ccc2c1c(=O)[nH]c(=S)n2CCOC(C)C", "note": "[Example 27]", "values": [{"measurement": "human Plasma stability", "setting": "Plasma Stability; [4]", "result": 91, "unit": "% remaining"}, {"measurement": "Papp at 90 min, 10 µM", "setting": "[1]; [5]", "result": 8.61, "unit": "×10⁻⁶ cm/s"}, {"measurement": "SIF", "setting": "[2]; [6]", "result": 61, "unit": "% remaining"}, {"measurement": "SGF", "setting": "[3]; [7]", "result": 92, "unit": "% remaining"}]}
{"smiles": "COCCOCCOC(=O)OCn1ccc2c1c(=O)[nH]c(=S)n2CCOC(C)C", "note": "[Example 105, 2-(2-methoxyethoxy)ethyl {4-oxo-1-[2-(propan-2-yloxy)ethyl]-2-sulfanylidene-1H,2H,3H,4H,5H-pyrrolo[3,2-d]pyrimidin-5-yl}methyl carbonate]", "values": [{"measurement": "human Plasma stability", "setting": "Plasma Stability; [8]", "result": 14, "unit": "%"}, {"measurement": "Papp at 90 min, 10 µM", "setting": "[1]; Caco-2, pH 7.4, no unit printed at the place (tables the 9th table and the 10th table have no head)", "result": 24.3, "unit": "×10⁻⁶ cm/s"}, {"measurement": "SIF", "setting": "[2]; [10]", "result": 84, "unit": "%"}, {"measurement": "SGF", "setting": "[3]; [11]", "result": 95, "unit": "%"}]}
{"smiles": "CC(C)OCCn1c(=S)[nH]c(=O)c2c1ccn2COC(=O)CCCCNC(=O)[C@H](Cc1ccc(O)cc1)NC(=O)OC(C)(C)C.O=C(O)C(F)(F)F", "note": "[Example 45]", "values": [{"measurement": "human Plasma stability", "setting": "Plasma Stability; [4]", "result": 66, "unit": "% remaining"}, {"measurement": "Papp at 90 min, 10 µM", "setting": "[1]; pH 7.4, Caco-2 monolayer", "result": 2.28, "unit": "×10⁻⁶ cm/s"}, {"measurement": "SIF", "setting": "[2]; [6]", "result": 89, "unit": "% remaining"}, {"measurement": "SGF", "setting": "[3]; [7]", "result": 100, "unit": "%"}]}
{"smiles": "CCCCNC(=O)n1ccc2c1c(=O)[nH]c(=S)n2CCOC(C)C", "note": "[Example 224]", "values": [{"measurement": "human Plasma stability", "setting": "Plasma Stability; % remaining at 1 h in human plasma, the 17th table", "result": 89, "unit": "% remaining"}, {"measurement": "Papp at 90 min, 10 µM", "setting": "[1]; Caco-2, pH 7.4, Caco-2 monolayer, the 17th table", "result": 12.6, "unit": "×10⁻⁶ cm/s"}, {"measurement": "SIF", "setting": "[2]; % remaining at 1 h in simulated intestinal fluid, the 17th table", "result": 100, "unit": "% remaining"}, {"measurement": "SGF", "setting": "[3]; % remaining at 1 h in simulated gastric fluid, the 17th table", "result": 83, "unit": "% remaining"}]}
